# Laboratory results published in article PMC10762068, “Selective blockade of Cav1.2 (α1C) versus Cav1.3 (α1D) L-type calcium channels by the black mamba toxin calciseptine” (Nature Communications, 2024).
# “Also recorded” adds a separate entry of the source. Positions of bridges follow the written chain, without caps; N, C: chain ends. No end group written: not given here.
# Columns and labels:
# Cav1.3_42 = test: Whole cell recording of ICav1.3-42 in HEK-293T cells; format: cell-based; conditions: for L-type Ca2+ current density: mean ± SEM, n=6
# Protocol: HEK-293T (RRID:CVCL_2737) were obtained from the European Collection of Authenticated Cell Cultures (ECACC 96121229). The identity of HEK-293T has been confirmed by STR profiling and the cells have been eradicated from mycoplasma at ECACC. We routinely tested the cells for the absence of the mycoplasma contamination. Cells were cultivated at 37 °C in DMEM supplemented with GlutaMax, 10% fetal bovine serum and 1% penicillin/streptomycin (Invitrogen, Fisher Scientific, France). Transfections were performed using jet-PEI (Ozyme, France) with a DNA mix containing either the plasmids that code for Cav1.2-GFP, β2a and α2δ (0.8 µg of each) or either the plasmids that code for Cav1.3 (with and without exon 42a), or Cav2.1, or either Cav2.2 combined with β2a and α2δ (0.8 µg of each supplemented with 0.025 µg of a plasmid coding for GFP). For Cav3.1 expression β2a and α2δ subunits were omitted. Plasmids coding for β2a, α2δ and Cav1.3 were created as described previously. Plasmid coding for Cav1.2-GFP was obtained from Dr. Catalucci[60]. After transfection cells were placed at 30 °C for 2–3 days and dissociated with Versene (Invitrogen, Fisher Scientific, France) and plated at a density of ~35 × 10^3 cells per 35 mm Petri dish for electrophysiological recordings, which were performed the following day.
# Macroscopic currents in HEK-293T cells were recorded at room temperature using an Axopatch 200B or Multiclamp 700B patchclamp amplifier (Molecular Devices, Sunnyvale CA). […] The extracellular solution contained (in mM): 135 NaCl, 20 TEACl, 5 BaCl2, 1 MgCl2, and 10 HEPES (pH adjusted to 7.25 with KOH, ~330 mOsm).
# In all experiments of cellular electrophysiology, we employed synthetized analog of Cas, commercially available at Latoxan (ID: L8109). The native peptide was purified from the venom of Dendroaspis polylepis purchased from Latoxan, as previoulsly described. The pure peptide was obtained after gel filtration, cation exchange and C18 reversed phase chromatography. Its measured molecular mass (7036.26 Da average) was in accordance with the mass calculated from sequence data (7036.22 Da).
# [1] = system: human ether-a-go-go-related gene (hERG); test: hERG current in Xenopus oocytes; format: cell-based; conditions: Cas 1 µM, n=5, Xenopus oocytes, 19-20 °C
# Protocol: Xenopus laevis specimen were purchased from Tefor Paris Saclay. Animal handling and experiments fully conformed to French regulations and were approved by local governmental veterinary services (authorization number E06-152-5 delivered by the Ministère de l’Agriculture, Direction des Services Vétérinaires). Animals were anesthetized by exposure for 20 min to a 0.1% solution of 3-aminobenzoic acid ethyl ester (MS-222) (Sigma) buffered at pH 7.4. Oocytes were surgically removed and dissected away in a saline solution (ND96) containing (in mM) 96 NaCl, 2 KCl, 1.8 CaCl2, 2 MgCl2, and 5 HEPES at pH 7.4 with NaOH. Stage V and VI oocytes were treated for 3 h with collagenase (1 mg/ml, type Ia, Sigma) in the presence of trypsin inhibitor (Sigma) in ND96 to discard follicular cells. pSI-HERG plasmid solutions were injected in nucleus (100 ng/µl, 23 nl/oocyte) using a pressure microinjector. The oocytes were kept at 19 °C in the ND96 saline solution supplemented with penicillin (10 mg/L) and streptomycin (20 mg/L). Oocytes were studied within 2 days following injection of plasmid. In a 0.3-ml perfusion chamber, a single oocyte was impaled with two standard glass microelectrodes (1–2.5 MΩ resistance) filled with 3 M KCl and maintained under voltage- clamp using a Dagan TEV 200 amplifier. […]
sequence,measurement,setting,value
"RICYIHKASLPRATKTCVENTCYKMFIRTQREYISERGCGCPTAMWPYQTECCKGDRCNK (disulfide 3-22, 17-39, 41-52, 53-58 (inferred)) [Cas, calciseptine]","reduction of Ca current, long form of Cav1.3 (Cav1.3L)",Cav1.3_42; Cas 300 nM and 1 µM,did not observe any reduction
same,effect on ICav1.3-42 (I-V relationship),"Cav1.3_42; Cas 300 nM, all voltages tested, at peak p = 0.5696, n=6/N=3",no significant effect
same,L-type Ca2+ current density,"Cav1.3_42; Cas 300 nM, 0 mV, Ctrl -15.10± 3.34",-14.76± 4.28 pA/pF
same,L-type Ca2+ current density,"Cav1.3_42; Cas 300 nM, +10 mV, Ctrl -12.01± 2.36",-11.09± 3.45 pA/pF
same,L-type Ca2+ current density,"Cav1.3_42; Cas 300 nM, +20 mV, Ctrl -6.20± 1.35",-6.12± 2.78 pA/pF
same,L-type Ca2+ current density,"Cav1.3_42; Cas 300 nM, +30 mV, Ctrl -3.03± 0.66",-2.96± 2.36 pA/pF
same,L-type Ca2+ current density,"Cav1.3_42; Cas 300 nM, -10 mV, Ctrl -15.68± 3.76",-15.81± 4.50 pA/pF
same,L-type Ca2+ current density,"Cav1.3_42; Cas 300 nM, -20 mV, Ctrl -12.28± 3.31",-12.95± 3.93 pA/pF
same,reduction of ICav1.3-42,"Cav1.3_42; all concentrations tested (up to 1 µM), holding −60 mV, step 0 mV, 300 nM n=6/N=3, 1 µM n=7/N=3",did not record a statistically significant reduction
same,effect on hERG current,[1],did not record any difference; also recorded: had no effect
